Laboratory results published in patent publication US11479533B2, “Inhibitors of Rho associated coiled-coil containing protein kinase” (KADMON CORPORATION, LLC, priority 2017, dated 2022).
Like-named read-outs stand apart in the source and are kept apart here.

What was measured:
[1] = tested on: ppMlc (T18/S19) levels in A7R5 cells; assay: A7R5 in-cell ELISA assay (ppMlc); format: cell-based, rat
Description: Determination of compounds ROCK inhibitory activity in A7R5 cells: rat aortic smooth muscle cell line A7R5 cells were maintained and treated in DMEM medium with 10% of fetal bovine serum. Cells were seeded with density of 5,000 cells/well in 96-well plates for 24 hours and subsequently treated 90 min with testing compounds. Cells were then fixed and processed according to the In-Cell ELISA Colorimetric Detection Kit manual (Thermo Scientific).
A7R5 cells were treated with 9 points 2 fold serial dilution of compounds and ppMlc (T18/S19) levels were determined in order to calculate the cellular IC50s of the compounds.
An A7R5 in-cell ELISA assay was performed to determine ROCK inhibition of test articles. A7R5 cells were treated with 9 points 2-fold serial dilution of compounds and ppMlc (T18/S19) levels were determined to calculate cellular IC50 values of the compounds. […] A7R5 cells were treated with 9 points 2-fold serial dilution of compounds and ppMlc (T18/S19) levels were determined to calculate cellular IC50 values of the compounds using the nonlinear regression curve fit function of the GraphPad Prism software.

[2] = target: recombinant ROCK2 (amino acids 1-552) (Homo sapiens (Human), UniProt O75116); assay: Z'-lyte kinase assay, ROCK2; format: biochemical; details: for inhibition at 0.5 µM: read-out: ROCK2 % inh (0.5 μM)
Description: (§1) Determination of compounds ROCK inhibitory activity in vitro (Z'lyte assay): recombinant ROCK1 (amino acids 1-535) and ROCK2 (amino acids 1-552) proteins were purchased from ThermoFisher Scientific. Compounds activities were measured by Z'-lyte kinase kit (ThermoFisher Scientific) and IC50s were calculated.
(§2) Compounds activities were measured by Z'-lyte kinase kit (ThermoFisher Scientific). […] IC50s were calculated using the GraphPad Prism software with kinase activities data that were collected from 9 points serial dilution of compounds treatment. The ROCK inhibition in A7R5 cells and NIH3T3 (Acta2-Luc) cells was performed as described above.
(§3) The percent inhibition rate was calculated by normalizing the kinase activity value obtained with compound treatment against DMSO control value and then applied to the equation, […]. IC50's were calculated using the nonlinear regression curve fit function of the GraphPad Prism software with kinase activities data measured with 9 points 2-fold serial dilution of compounds treatment.

[3] = target: recombinant ROCK1 (amino acids 1-535) (Homo sapiens (Human), UniProt Q13464); assay: Z'-lyte kinase assay, ROCK1; format: biochemical; details: for inhibition at 0.5 µM: read-out: ROCK1 % inh (0.5 μM)
Description: as §1, §2, §3

[4] = tested on: ACTA2-promoter-driven-luciferase in NIH3T3 cells; assay: NIH3T3 Acta2-promoter driven-luciferase assay; format: cell-based; details: Mus musculus, plus TGFβ1, 24 hr, read-out: NIH3T3, Acta2-luc, IC50
Description: NIH3T3 cells Acta2-promoter driven-luciferase assay: A NIH3T3 cell line stably expressing a luciferase reporter driven by the human ACTA2 gene promoter (−1000-1 bp) was established (NIH3T3-Acta2-luciferase). The cells were plated to confluence and treated with the test compounds plus TGFβ1 for 24 hr. Cells were then lysed and luciferase activity was measured using the LightSwitch luciferase kit from Active Motif.
ROCK inhibitors can be effectively rank ordered by ACTA2-promoter-driven-luciferase reporter cell assay. NIH3T3 cells stably expressing ACTA2-promoter-driven-luciferase were applied to measure ROCK compounds functional IC50's in cells. Cells were plated in 96 well plates to confluence and treated with 9 points serial dilution of compounds in combination with TGFβ1 for 24 hr. Luciferase activities were measured and compound's IC50's were calculated using the nonlinear regression curve fit function of the GraphPad Prism software. Compounds of the invention gave in cell IC50's under 200 nM, see FIG. 1c.

[5] = Rattus norvegicus, A7R5, A7R5 cells, Table 2, read-out: pMLC IC50 (nM) A7R5

Sequence of recombinant ROCK1 (amino acids 1-535) (Q13464 1-535): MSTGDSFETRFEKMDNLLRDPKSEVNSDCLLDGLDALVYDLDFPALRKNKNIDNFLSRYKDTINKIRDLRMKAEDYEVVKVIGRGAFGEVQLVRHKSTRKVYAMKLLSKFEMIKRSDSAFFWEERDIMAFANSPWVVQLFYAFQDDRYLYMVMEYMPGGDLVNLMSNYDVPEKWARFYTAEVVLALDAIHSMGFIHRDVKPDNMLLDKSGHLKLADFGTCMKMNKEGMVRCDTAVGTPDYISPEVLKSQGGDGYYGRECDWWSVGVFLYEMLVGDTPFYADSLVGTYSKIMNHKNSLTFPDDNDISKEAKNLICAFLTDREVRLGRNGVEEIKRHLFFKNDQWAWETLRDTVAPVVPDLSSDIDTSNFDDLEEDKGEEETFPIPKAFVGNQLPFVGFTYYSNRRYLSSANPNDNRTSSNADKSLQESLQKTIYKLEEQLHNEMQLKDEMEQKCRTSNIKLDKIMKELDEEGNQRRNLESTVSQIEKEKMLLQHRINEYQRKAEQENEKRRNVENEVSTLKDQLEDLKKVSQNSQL
Sequence of recombinant ROCK2 (amino acids 1-552) (O75116 1-552): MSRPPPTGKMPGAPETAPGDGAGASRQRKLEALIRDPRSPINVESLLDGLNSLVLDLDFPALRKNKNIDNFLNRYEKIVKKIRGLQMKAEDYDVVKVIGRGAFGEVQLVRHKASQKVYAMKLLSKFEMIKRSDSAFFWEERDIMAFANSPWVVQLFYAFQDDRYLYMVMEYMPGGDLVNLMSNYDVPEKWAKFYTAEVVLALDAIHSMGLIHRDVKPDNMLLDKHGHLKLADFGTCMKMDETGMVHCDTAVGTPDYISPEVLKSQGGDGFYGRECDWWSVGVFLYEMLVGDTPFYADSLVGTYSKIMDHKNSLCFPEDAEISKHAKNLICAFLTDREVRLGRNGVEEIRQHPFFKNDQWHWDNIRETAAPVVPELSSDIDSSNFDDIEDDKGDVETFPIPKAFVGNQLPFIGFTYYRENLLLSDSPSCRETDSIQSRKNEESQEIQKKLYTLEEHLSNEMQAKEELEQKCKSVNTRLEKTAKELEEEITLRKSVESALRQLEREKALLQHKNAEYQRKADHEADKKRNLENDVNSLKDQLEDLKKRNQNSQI

Compound	IC50 ([1]; A7R5 cells, Table 2, read-out: pMLC IC50 (nM) A7R5) [nM]	IC50 [1, 5] [nM]	IC50 [2] [nM]	IC50 [3] [nM]	inhibition at 0.5 µM [2] [%]	inhibition at 0.5 µM [3] [%]	IC50 ([1]; Rattus norvegicus, A7R5, A7R5 cells, ppMlc (T18/S19), in-cell ELISA, read-out: ppMlc IC50) [nM]	IC50 [4] [nM]
CNC(C(=O)Nc1ccc(-c2cn[nH]c2)cc1)c1ccc(F)cc1 (stereo not drawn) [Example 19, N-(4-(1H-pyrazol-4-yl)phenyl)-2-(4-fluorophenyl)-2-(methylamino)acetamide]		355	4.8		90	96		190
CNC(C(=O)Nc1ccc(-c2cn[nH]c2)cc1)c1ccccc1OC (stereo not drawn) [Example 8, N-(4-(1H-pyrazol-4-yl)phenyl)-2-(2-methoxyphenyl)-2-(methylamino)acetamide]		517	3	12			517	
CNC(C(=O)Nc1ccc(-c2cn[nH]c2)cc1)c1cccc(OC(F)F)c1 (stereo not drawn) [Example 24, N-(4-(1H-pyrazol-4-yl)phenyl)-2-(3-(difluoromethoxy)phenyl)-2-(methylamino)acetamide]		334	22	88	97			1710
CNC(C(=O)Nc1cc(OC)c(-c2cn[nH]c2)cc1F)c1cccc(OC)c1 (stereo not drawn) [Example 66, N-(2-fluoro-5-methoxy-4-(1H-pyrazol-4-yl)phenyl)-2-(3-methoxyphenyl)-2-(methylamino)acetamide]		332	18	56				396
CNC(C(=O)Nc1ccc(-c2cn[nH]c2)cc1)c1ccc2c(C)n[nH]c2c1 (stereo not drawn) [Example 33, N-(4-(1H-pyrazol-4-yl)phenyl)-2-(3-methyl-1H-indazol-6-yl)-2-(methylamino)acetamide]		913	29	85				1480
CNC(C(=O)Nc1ccc(-c2cn[nH]c2)cc1)c1cccc(F)c1 (stereo not drawn) [Example 18, N-(4-(1H-pyrazol-4-yl)phenyl)-2-(3-fluorophenyl)-2-(methylamino)acetamide]		504	10		89	92		464
CNC(C(=O)Nc1ccc(-c2cn[nH]c2)cc1)c1ccc2nc(C)[nH]c2c1 (stereo not drawn) [Example 35, N-(4-(1H-pyrazol-4-yl)phenyl)-2-(2-methyl-1H-benzo[d]imidazol-6-yl)-2-(methylamino)acetamide]		> 5000	486					> 5000
CNC(C(=O)Nc1ccc(-c2cn[nH]c2)cc1)c1cccc(Cl)c1 (stereo not drawn) [Example 20, N-(4-(1H-pyrazol-4-yl)phenyl)-2-(3-chlorophenyl)-2-(methylamino)acetamide]		263	1.7		94	98		157
COc1cccc(C(NCCCN(C)C)C(=O)Nc2ccc(-c3cn[nH]c3)cc2)c1 (stereo not drawn) [Example 38, N-(4-(1H-pyrazol-4-yl)phenyl)-2-((3-(dimethylamino)propyl)amino)-2-(3-methoxyphenyl)acetamide]		338	8.7					1620
CCNC(C(=O)Nc1ccc(-c2cn[nH]c2)cc1)c1ccc(F)cc1 (stereo not drawn) [Example 12, N-(4-(1H-pyrazol-4-yl)phenyl)-2-(ethylamino)-2-(4-fluorophenyl)acetamide]		458	30					735

More lines, main results first:

IC50 ([1]; A7R5 cells, Table 2, read-out: pMLC IC50 (nM) A7R5) [nM]	IC50 [1, 5] [nM]	IC50 [2] [nM]	IC50 [3] [nM]	inhibition at 0.5 µM [2] [%]	inhibition at 0.5 µM [3] [%]	IC50 ([1]; Rattus norvegicus, A7R5, A7R5 cells, ppMlc (T18/S19), in-cell ELISA, read-out: ppMlc IC50) [nM]	Compound	IC50 [4] [nM]
5550	4170	239	759				COCCN[C@H](C(=O)Nc1ccc(-c2cn[nH]c2)cc1)c1cccc(OC)c1 [Example 59, (S)—N-(4-(1H-pyrazol-4-yl)phenyl)-2-((2-methoxyethyl)amino)-2-(3-methoxyphenyl)acetamide]	> 5000
	58	1.8	3				CNCCN[C@@H](C(=O)Nc1ccc(-c2cn[nH]c2)cc1)c1cccc(OC)c1 [Example 62, (R)—N-(4-(1H-pyrazol-4-yl)phenyl)-2-(3-methoxyphenyl)-2-((2-(methylamino)ethyl)amino)acetamide]	108
	35	2.9	7.7				COc1cccc([C@@H](NCCN(C)C)C(=O)Nc2ccc(-c3cn[nH]c3)cc2)c1 [Example 61, (R)—N-(4-(1H-pyrazol-4-yl)phenyl)-2-((2-(dimethylamino)ethyl)amino)-2-(3-methoxyphenyl)acetamide]	48
	695	98	258				COc1cccc([C@H](NCCN(C)C)C(=O)Nc2ccc(-c3cn[nH]c3)cc2)c1 [Example 60, (S)—N-(4-(1H-pyrazol-4-yl)phenyl)-2-((2-(dimethylamino)ethyl)amino)-2-(3-methoxyphenyl)acetamide]	1410
	484	12	57				COCCN[C@@H](C(=O)Nc1ccc(-c2cn[nH]c2)cc1)c1cccc(OC)c1 [Example 58, (R)—N-(4-(1H-pyrazol-4-yl)phenyl)-2-((2-methoxyethyl)amino)-2-(3-methoxyphenyl)acetamide]	74
	548	22	81				CNCCN[C@H](C(=O)Nc1ccc(-c2cn[nH]c2)cc1)c1cccc(OC)c1 [Example 63, (S)—N-(4-(1H-pyrazol-4-yl)phenyl)-2-(3-methoxyphenyl)-2-((2-(methylamino)ethyl)amino)acetamide]	633
	977	37					CCOCCNC(C(=O)Nc1ccc(-c2cn[nH]c2)cc1)c1cccc(OC)c1 (stereo not drawn) [Example 37, N-(4-(1H-pyrazol-4-yl)phenyl)-2-((2-ethoxyethyl)amino)-2-(3-methoxyphenyl)acetamide]	2310
	1580	16					COCCCNC(C(=O)Nc1ccc(-c2cn[nH]c2)cc1)c1cccc(OC)c1 (stereo not drawn) [Example 36, N-(4-(1H-pyrazol-4-yl)phenyl)-2-(3-methoxyphenyl)-2-((3-methoxypropyl)amino)acetamide]	1550
